Assay results from patent publication US11293015B2, “Diels-Alderase and use thereof” (Peking University, priority 2020, dated 2022).

B1: MaDA: Diels-Alderase identified from Morus alba, amino acid sequence SEQ ID No.1 (protein)
chain: MQYFSFPSSLAKITIFLIFSFVFASSANDTHEAFLECLTTRIPSNSTFTPQSIIYTPDNPSYSTILDSTTQNPRFLSSSTRNPFAIITPLHASHIQAALYCSQKHGEQMRIRSGGHDYEGLSYQSSVPFFILDLRNLSSISIDAKSKSAWVQAGATIGELYYGIAKTSLNLSFPGGVAHTIGVGGQLGGGGYGYSTRKYGLASDNVIDAQLIDARGRILDRKTMGEDLFWAIRGGGAGSFGIVLAWKIRLVNTPSTVTIFEAVRSWENNTTKKFIRRYQRRASKTDKDLTIFVGFRTTSSTDEEGNERISILTIVSATFHGSKDRLLQLVQKEFPDLGLVSEECTEMSWVRSIIHFNLFGDEVPLEVLLNRTLNFEMKAFKLRSDYVQKPIPDDVLEKLLSKLYDEETGEGYIEFFPYGGKMSKISESEIPFPYRAGNLYNLRYMVSWKDDGNITRTNMHLSWIKDAYDYMTPYVSKDPRGAYLNFRDLDIGVNVNESDYDYVAKASVWGTKYFRNNFYRLVDIKTIVDPTNFFKYEQSIPPLPPLHSAM

Experiments:
MaDA [1] = assay: Enzymatic activity test, MaDA run alongside MaDA-1; format: biochemical, Morus alba; conditions: Diene 3 100 μM, Dienophile 1 100 μM, SUMO-MaDA 27 nM, pH 8.0, 50° C., 10 min
Method: (§1) The activity of MaDA-1 was tested as follows: to a 97 μL reaction buffer (20 mm Tris-HCl, pH=8.0), 1 μL of Diene 3 (final concentration of 100 μM) and 1 […] (final concentration of 100 μM) were added, and then 1 μL of SUMO-MaDA protein (final concentration 27 nM) or SUMO-MaDA-1 (final concentration 27 nM) was added. The reaction mixture was reacted at 50° C. for 10 min, then quenched by adding 200 μL methanol, and centrifuged at 13,000 rpm for 30 min. The supernatant was analyzed by HPLC. In the control group as blank control, no protein was added.

MaDA-1 = assay: Enzymatic activity test for MaDA-1; format: biochemical, Morus alba; conditions: Diene 3 100 μM, Dienophile 1 100 μM, SUMO-MaDA-1 27 nM, pH 8.0, 50° C., 10 min
Method: as §1

MaDA [2] = assay: Conversion of dienophile substrates in the enzymatic D-A reaction; format: biochemical, Morus alba
Method: In the present Example, the conversion of Dienophiles 1 and 5-9 under enzymatic D-A reaction conditions were also determined. The reaction conditions were as follows:
To 96 μL reaction buffer (20 mM Tris-HCl, pH 8.0) was added 2 μL Diene 3 (final concentration, 200 μM) and 1 μL different chalcones or their derivatives (i.e., Dienophiles 1 and 5-9, final concentration, 100 μM). Then 1 μL MaDA or SUMO-MaDA (final concentration, 540 nM) was added. The resulting mixture was reacted at 50° C. for 5 min. The reactions were terminated by the addition of 200 μl of methanol. The reaction liquid were analyzed using the HPLC analysis condition mentioned above. After three repeated experiments, the conversion of Dienophiles 1, 7, 8, 9, 5 and 6 are determined as 74%, 55%, 13%, 78%, 0%, 71% respectively, as shown in FIG. 12.

MaDA-2 = assay: Activity test of MaDA-2; format: biochemical, Morus alba; conditions: dienophile 100 μM, Diene 3, 22, 23 or 24 100 μM, SUMO-MaDA-2 54 nM, pH 8.0, 50° C., 5 min
Method: Under the catalyzation of MaDA-2, the reaction activity between Dienophile 1 and different dienes 3, 22, 23 and 24 was measured following the protocol as follows: to a […] reaction buffer (20 mm Tris-HCl, pH=8.0), 1 μL of Dienophile 1 (final concentration of 100 μM) and 1 μL Diene 3, 22, 23 or 24 (final concentration of 100 μM) were added, and then 1 μL of SUMO-MaDA-2 (final concentration 54 nM) was added. The reaction mixture was reacted at 50° C. for 5 min, then quenched by adding 200 μL methanol. The reaction solution was analyzed by HPLC under the analysis conditions mentioned above, and the results were shown in FIG. 20. […] However, unlike MaDA, MaDA-2 can recognize Dienophile 5 to generate corresponding natural products or their analogs.

[3] = Optimum temperature and pH of MaDA; format: biochemical; conditions: Diene 3 0.1 mM, Dienophile 1 0.1 mM, 0.02 μg MaDA, 5 min, buffers pH 4.0-11.0
Method: The effects of different reaction temperatures (25, 30, 35, 40, 45, 50, 55, 60, and 70° C.) on [4+2] cyclization catalyzed by MaDA were investigated using Diene 3 and Dienophile 1 as substrates. The reaction system was as follows: the reaction mixture (100 μL) containing Diene 3 (0.1 mM) and Dienophile 1 (0.1 mM), and 0.02 μg MaDA was reacted for 5 min in Tris HCl buffer at pH 7.5 (the buffer solution was balanced at different temperatures for 15 min in advance). After the reaction, 200 μL ice-cold methanol was added to terminate the reaction, and vortex mixing was carried out. The resulting mixture was centrifuged at 15,000 g for 30 min. The supernatant was analyzed by HPLC. […] The conversion of the substrate was calculated by substituting the peak area of the product into the standard curve to calculate the reduction of the substrate.
The effects of buffer at different pH (pH 4.0-6.0, citric acid-sodium citrate buffer; 6.0-7.0, disodium hydrogen phosphate-sodium dihydrogen phosphate buffer; 7.0-9.0, Tris HCl buffer; 9.0-11.0, sodium carbonate-sodium bicarbonate buffer) on the [4+2] cyclization reaction of MaDA was investigated using Diene 3 and Dienophile 1 as substrates. […] The supernatant was analyzed by HPLC. […] The conversion of the substrate was calculated by substituting the peak area of the product into the standard curve to calculate the reduction of substrate.

MaDA-2, sequence (as listed by the source): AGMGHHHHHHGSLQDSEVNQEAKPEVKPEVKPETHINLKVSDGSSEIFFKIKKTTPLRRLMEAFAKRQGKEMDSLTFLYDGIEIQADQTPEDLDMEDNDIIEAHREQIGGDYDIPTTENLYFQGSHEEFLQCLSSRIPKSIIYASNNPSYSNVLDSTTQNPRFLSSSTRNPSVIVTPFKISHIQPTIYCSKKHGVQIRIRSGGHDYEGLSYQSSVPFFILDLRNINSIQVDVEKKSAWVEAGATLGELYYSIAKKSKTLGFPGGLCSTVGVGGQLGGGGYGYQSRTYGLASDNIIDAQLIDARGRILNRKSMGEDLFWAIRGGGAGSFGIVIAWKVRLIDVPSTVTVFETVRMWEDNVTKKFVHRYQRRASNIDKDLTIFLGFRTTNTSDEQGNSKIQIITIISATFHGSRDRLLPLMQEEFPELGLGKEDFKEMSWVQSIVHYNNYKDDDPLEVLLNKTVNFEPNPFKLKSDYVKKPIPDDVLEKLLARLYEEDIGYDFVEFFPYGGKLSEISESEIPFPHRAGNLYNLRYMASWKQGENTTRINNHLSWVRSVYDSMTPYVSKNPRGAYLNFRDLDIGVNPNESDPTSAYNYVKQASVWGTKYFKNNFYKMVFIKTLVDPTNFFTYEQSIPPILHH

Molecule | consumption of substrate with MaDA, chalcomoracin (4) produced (MaDA [1]) | consumption of substrate with MaDA-1, chalcomoracin (4) produced (MaDA-1) | conversion of dienophile (MaDA [2]; Diene 3 200 μM, dienophile 100 μM, MaDA or SUMO-MaDA 540 nM, pH 8.0, 50° C., 5 min, three repeated experiments) [%] | effective recognition of dienophile by MaDA protein (MaDA [2]; same condition as the conversion test (540 nM enzyme, 50° C., 5 min)) | MaDA-2 catalysed reaction between dienophile and different dienes (MaDA-2) | optimum pH [3]
C=C(C)/C=C/c1c(O)cc(-c2cc3ccc(O)cc3o2)cc1O [Diene 3] | almost completely consumed | almost completely consumed | – | – | – | –
morachalcone A [Dienophile 1] | almost completely consumed | almost completely consumed | 74 | effectively recognize | can also catalyze the reaction | –
B1 | – | – | – | – | – | 8.0
